According to US7875587B2, “Peptide analogues of GIP for treatment of diabetes, insulin resistance and obesity” (UUTECH Limited, priority 2004, dated 2011):
No end group written: not given here.

Assays:
Wistar rats = test: In vivo plasma glucose and insulin after i.p. glucose with peptide in Wistar rats; parameters: species or system rat; conditions: 10 nmol/kg i.p. with glucose
Method: In vivo biological activity of GIP and Tyr^1-glucitol GIP. Effects of GIP and Tyr^1-glucitol GIP on plasma glucose and insulin concentrations were examined using 10-12 week old male Wistar rats. The animals were housed individually in an air conditioned room and 22±2° C. with a 12 hour light/12 hour dark cycle. Drinking water and a standard rodent maintenance diet (Trouw Nutrition, Belfast, Northern Ireland) were supplied ad libitum. Food was withdrawn for an 18 hour period prior to intraperitoneal injection of glucose alone (18 mmol/kq body weight) or in combination with either GIP or Tyr^1-glucitol GIP (10 nmol/kg). Test solutions were administered in a final volume of 8 ml/kg body weight. Blood samples were collected at 0, 15, 30 and 60 minutes from the cut tip of the tail of conscious rats into chilled fluoride/heparin microcentrifuge tubes (Sarstedt, Numbrecht, Germany). Samples were centrifuged using a Beckman microcentrifuge for about 30 seconds at 13,000 g. Plasma samples were aliquoted and stored at −20° C. prior to glucose and insulin determinations. All animal studies were done in accordance with the Animals (Scientific Procedures) Act 1986.
Analyses. Plasma glucose was assayed by an automated glucose oxidase procedure using a Beckman Glucose Analyzer II [33]. Plasma insulin was determined by dextran charcoal radioimmunoassay as described previously. Incremental areas under plasma glucose and insulin area under the curve (AUC) were calculated using a computer program (CAREA) employing the trapezoidal rule with baseline subtraction. Results are expressed as mean±SEM and values were compared using the Student's unpaired t-test.

human GIP receptor = molecular target: T1, human GIP receptor (Homo sapiens, UniProt P48546); test: GIP-stimulated cyclic AMP generation in GIP receptor transfected CHL cells (antagonism); type: cell-based; conditions: in the presence of native GIP (10^-7 M)
T1 construct: expressed in transfected cells; host or cells: Chinese hamster lung (CHL) fibroblasts, stably transfected
T1 sequence (P48546 22-466): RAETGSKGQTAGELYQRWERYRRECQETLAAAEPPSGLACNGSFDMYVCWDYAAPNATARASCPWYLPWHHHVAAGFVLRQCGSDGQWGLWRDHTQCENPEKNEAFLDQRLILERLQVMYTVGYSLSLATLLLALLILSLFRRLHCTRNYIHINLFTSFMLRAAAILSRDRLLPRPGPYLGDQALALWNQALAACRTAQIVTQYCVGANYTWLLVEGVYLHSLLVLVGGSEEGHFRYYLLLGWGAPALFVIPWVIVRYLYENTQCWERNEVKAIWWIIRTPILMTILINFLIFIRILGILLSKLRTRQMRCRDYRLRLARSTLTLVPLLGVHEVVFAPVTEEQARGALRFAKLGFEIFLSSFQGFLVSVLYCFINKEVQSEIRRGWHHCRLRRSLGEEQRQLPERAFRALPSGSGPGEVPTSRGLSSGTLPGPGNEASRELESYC
Method: Tissue culture. Chinese hamster lung (CHL) fibroblast cells stably transfected with the human GIP receptor were cultured in DMEM tissue culture medium containing 10% (v/v) foetal bovine serum, 1% (v/v) antibiotics (100 U/ml penicillin, 0.1 mg/ml streptomycin). BRIN-BD11 cells were cultured using RPMI-1640 tissue culture medium containing 10% (v/v) foetal bovine serum, 1% (v/v) antibiotics (100 U/ml penicillin, 0.1 mg/ml streptomycin). Cells were maintained in sterile tissue culture flasks (Corning Glass Works, Sunderland, UK) at 37° C. in an atmosphere of 5% CO2 and 95% air using an LEEC incubator (Laboratory Technical Engineering, Nottingham, UK).
Acute studies of cyclic AMP generation. GIP receptor transfected CHL cells were seeded into 12-well plates (Nunc, Roskilde, Denmark) at a density of 1.0×10^5 cells per well. The cells were then allowed to grow for 48 hours before being loaded with tritiated adenine (2 μCi; TRK311, Amersham, Buckinghamshire, UK) and incubated at 37° C. for 6 hours in 1 ml DMEM, supplemented with 0.5% (w/v) […]. The cells were then washed twice with HBS buffer (130 mM NaCl, 20 mM HEPES, 0.9 mM NaHPO4, 0.8 mM MgSO4, 5.4 mM KCl, 1.8 mM CaCl2, 25 mM glucose, 25 μM phenol red, pH 7.4). […]

Compound | overall insulin response (AUC) compared with glucose alone (Wistar rats) | plasma glucose concentrations and AUC compared with control group (Wistar rats; vs glucose alone, 0-60 min) | inhibition of GIP-stimulated cyclic AMP production (human GIP receptor)
CC[C@H](C)[C@H](NC(=O)[C@H](CO)NC(=O)[C@H](Cc1ccc(O)cc1)NC(=O)[C@H](CC(=O)O)NC(=O)[C@H](CO)NC(=O)[C@@H](NC(=O)[C@H](Cc1ccccc1)NC(=O)[C@@H](NC(=O)CNC(=O)[C@H](CCC(=O)O)NC(=O)[C@H](C)NC(=O)[C@@H](N)Cc1ccc(O)cc1)[C@@H](C)O)[C@@H](C)CC)C(=O)N[C@@H](C)C(=O)N[C@@H](CCSC)C(=O)N[C@@H](CC(=O)O)C(=O)N[C@@H](CCCCN)C(=O)N[C@H](C(=O)N[C@@H](Cc1c[nH]cn1)C(=O)N[C@@H](CCC(N)=O)C(=O)N[C@@H](CCC(N)=O)C(=O)N[C@@H](CC(=O)O)C(=O)N[C@@H](Cc1ccccc1)C(=O)N[C@H](C(=O)N[C@@H](CC(N)=O)C(=O)N[C@@H](Cc1c[nH]c2ccccc12)C(=O)N[C@@H](CC(C)C)C(=O)N[C@@H](CC(C)C)C(=O)N[C@@H](C)C(=O)N[C@@H](CCC(N)=O)C(=O)N[C@@H](CCCCN)C(=O)NCC(=O)N[C@@H](CCCCN)C(=O)N[C@@H](CCCCN)C(=O)N[C@@H](CC(N)=O)C(=O)N[C@@H](CC(=O)O)C(=O)N[C@@H](Cc1c[nH]c2ccccc12)C(=O)N[C@@H](CCCCN)C(=O)N[C@@H](Cc1c[nH]cn1)C(=O)N[C@@H](CC(N)=O)C(=O)N[C@H](C(=O)N[C@H](C(=O)N[C@@H](CCC(N)=O)C(=O)O)[C@@H](C)O)[C@@H](C)CC)C(C)C)[C@@H](C)CC [GIP 1–42, reference compound] | significantly greater | significantly lower | –
YAPGTFISDYSIAMDKIHQQDFVNWLLAQKGKKNDWKHNITQ [(Pro^3)GIP] | – | – | inhibited in dose-dependent fashion
